Tested on: 653999-131-R-J2-PDC complex spheroids, growth inhibition
Experiment: Anticancer human tumor 653999-131-R-J2-PDC patient-derived lung adenocarcinoma cell line growth inhibition [RAS]
Details: for viability, T/C: stronger effect = lower value
Summary of the method: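 Tumour cells grown as complex spheroids with HUVEC endothelial cells and mesenchymal stem cells, treated with RAS pathway inhibitor combinations. Each agent spans half-log steps from near clinical Cmax, or 10 microM where Cmax is unknown.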
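Further: spheroids exposed to the agents for seven days before the readout.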

With Cc1nc(N2CCC3(CC2)COC(C)C3N)c(CO)nc1Sc1ccnc(N)c1Cl (centres undefined) the viability, T/C (compound 0.0316 µM) was 91.2% [middle of 4 runs], the viability, T/C (compound 0.1 µM) was 98.4% [middle of 4 runs] and the viability, T/C (compound 1 µM) was 87.6% [middle of 4 runs]. For the same compound, the viability, T/C (compound 3.16 µM) was 85.8% [middle of 4 runs] and the IC50 (curve of compound) was greater than 10000 nM.
With CCC(CC)c1cc(NC2CCC(N)C2)n2nccc2n1 (centres undefined) + C=CC(=O)N1CCN(c2nc(OCC3CCCN3C)nc3c(F)c(-c4nc(N)cc(C)c4C(F)(F)F)c(Cl)cc23)C(C)C1 the IC50 (curve of first compound, second compound 0.00316 µM) was 2050 nM, the IC50 (curve of first compound, second compound 0.01 µM) was 1970 nM and the IC50 (curve of first compound, second compound 0.0316 µM) was 2030 nM. For the same compound, the IC50 (curve of first compound, second compound 0.1 µM) was 2120 nM, the IC50 (curve of first compound, second compound 0.316 µM) was 1910 nM and the IC50 (curve of first compound, second compound 1 µM) was 2100 nM. It also gave a viability, T/C (second compound 0.00316 µM, first compound 0.0316 µM) of 107%, a viability, T/C (second compound 0.00316 µM, first compound 0.1 µM) of 109% and a viability, T/C (second compound 0.00316 µM, first compound 0.316 µM) of 95.5%. For the same compound, the viability, T/C (second compound 0.00316 µM, first compound 1 µM) was 101%, the viability, T/C (second compound 0.00316 µM, first compound 3.16 µM) was 16.5% and the viability, T/C (second compound 0.00316 µM, first compound 10 µM) was 21.7%. It also gave a viability, T/C (second compound 0.01 µM, first compound 0.0316 µM) of 91.2%, a viability, T/C (second compound 0.01 µM, first compound 0.1 µM) of 92.2% and a viability, T/C (second compound 0.01 µM, first compound 0.316 µM) of 104%. It also gave a viability, T/C (second compound 0.01 µM, first compound 1 µM) of 99%, a viability, T/C (second compound 0.01 µM, first compound 3.16 µM) of 16.9% and a viability, T/C (second compound 0.01 µM, first compound 10 µM) of 18.1%. For the same compound, the viability, T/C (second compound 0.0316 µM, first compound 0.0316 µM) was 93.3%, the viability, T/C (second compound 0.0316 µM, first compound 0.1 µM) was 117% and the viability, T/C (second compound 0.0316 µM, first compound 0.316 µM) was 87.4%. The viability, T/C (second compound 0.0316 µM, first compound 1 µM) was 94.3%, the viability, T/C (second compound 0.0316 µM, first compound 3.16 µM) was 18.2% and the viability, T/C (second compound 0.0316 µM, first compound 10 µM) was 26%. It also gave a viability, T/C (second compound 0.1 µM, first compound 0.0316 µM) of 99.9%, a viability, T/C (second compound 0.1 µM, first compound 0.1 µM) of 95.4% and a viability, T/C (second compound 0.1 µM, first compound 0.316 µM) of 112%. It also gave a viability, T/C (second compound 0.1 µM, first compound 1 µM) of 113%, a viability, T/C (second compound 0.1 µM, first compound 3.16 µM) of 16.1% and a viability, T/C (second compound 0.1 µM, first compound 10 µM) of 25.5%. The viability, T/C (second compound 0.316 µM, first compound 0.0316 µM) was 123%, the viability, T/C (second compound 0.316 µM, first compound 0.1 µM) was 100% and the viability, T/C (second compound 0.316 µM, first compound 0.316 µM) was 93.7%. The viability, T/C (second compound 0.316 µM, first compound 1 µM) was 89.4%, the viability, T/C (second compound 0.316 µM, first compound 3.16 µM) was 14.8% and the viability, T/C (second compound 0.316 µM, first compound 10 µM) was 23.8%. The viability, T/C (second compound 1 µM, first compound 0.0316 µM) was 114%, the viability, T/C (second compound 1 µM, first compound 0.1 µM) was 97.2% and the viability, T/C (second compound 1 µM, first compound 0.316 µM) was 111%. The viability, T/C (second compound 1 µM, first compound 1 µM) was 116%, the viability, T/C (second compound 1 µM, first compound 3.16 µM) was 13.8% and the viability, T/C (second compound 1 µM, first compound 10 µM) was 20.9%.
O=C(c1ccc(F)c(F)c1Nc1ccc(I)cc1F)N1CC(O)([C@@H]2CCCCN2)C1 + CCn1c(-c2cc(N3CCN(C)CC3)cnc2C(C)OC)c2c3cc(ccc31)-c1csc(n1)CC(NC(=O)C1CC1C)C(=O)N1CCCC(N1)C(=O)OCC(C)(C)C2 showed an IC50 (curve of first compound, second compound 0.000949 µM) of 43.1 nM, an IC50 (curve of first compound, second compound 0.003 µM) of 18 nM and an IC50 (curve of first compound, second compound 0.00949 µM) of 7.57 nM. The IC50 (curve of first compound, second compound 0.03 µM) was less than 3.16 nM, the IC50 (curve of first compound, second compound 0.0949 µM) was less than 3.16 nM and the IC50 (curve of first compound, second compound 0.3 µM) was less than 3.16 nM. For the same compound, the viability, T/C (second compound 0.000949 µM, first compound 0.00316 µM) was 77.8%, the viability, T/C (second compound 0.000949 µM, first compound 0.01 µM) was 73.4% and the viability, T/C (second compound 0.000949 µM, first compound 0.0316 µM) was 48.3%. For the same compound, the viability, T/C (second compound 0.000949 µM, first compound 0.1 µM) was 43.1%, the viability, T/C (second compound 0.000949 µM, first compound 0.316 µM) was 14.6% and the viability, T/C (second compound 0.000949 µM, first compound 1 µM) was 4.82%. It also gave a viability, T/C (second compound 0.003 µM, first compound 0.00316 µM) of 52.7%, a viability, T/C (second compound 0.003 µM, first compound 0.01 µM) of 54% and a viability, T/C (second compound 0.003 µM, first compound 0.0316 µM) of 45.5%. The viability, T/C (second compound 0.003 µM, first compound 0.1 µM) was 34.8%, the viability, T/C (second compound 0.003 µM, first compound 0.316 µM) was 12% and the viability, T/C (second compound 0.003 µM, first compound 1 µM) was 4.41%. The viability, T/C (second compound 0.00949 µM, first compound 0.00316 µM) was 52.2%, the viability, T/C (second compound 0.00949 µM, first compound 0.01 µM) was 50.2% and the viability, T/C (second compound 0.00949 µM, first compound 0.0316 µM) was 34.1%. It also gave a viability, T/C (second compound 0.00949 µM, first compound 0.1 µM) of 14.4%, a viability, T/C (second compound 0.00949 µM, first compound 0.316 µM) of 7.76% and a viability, T/C (second compound 0.00949 µM, first compound 1 µM) of 3.12%. For the same compound, the viability, T/C (second compound 0.03 µM, first compound 0.00316 µM) was 26.6%, the viability, T/C (second compound 0.03 µM, first compound 0.01 µM) was 16.9% and the viability, T/C (second compound 0.03 µM, first compound 0.0316 µM) was 15.1%. The viability, T/C (second compound 0.03 µM, first compound 0.1 µM) was 9.74%, the viability, T/C (second compound 0.03 µM, first compound 0.316 µM) was 4.27% and the viability, T/C (second compound 0.03 µM, first compound 1 µM) was 3.44%. It also gave a viability, T/C (second compound 0.0949 µM, first compound 0.00316 µM) of 19.7%, a viability, T/C (second compound 0.0949 µM, first compound 0.01 µM) of 16.8% and a viability, T/C (second compound 0.0949 µM, first compound 0.0316 µM) of 12.1%. For the same compound, the viability, T/C (second compound 0.0949 µM, first compound 0.1 µM) was 5.71%, the viability, T/C (second compound 0.0949 µM, first compound 0.316 µM) was 3.46% and the viability, T/C (second compound 0.0949 µM, first compound 1 µM) was 2.86%. The viability, T/C (second compound 0.3 µM, first compound 0.00316 µM) was 15.9%, the viability, T/C (second compound 0.3 µM, first compound 0.01 µM) was 15% and the viability, T/C (second compound 0.3 µM, first compound 0.0316 µM) was 10.6%. The viability, T/C (second compound 0.3 µM, first compound 0.1 µM) was 4.53%, the viability, T/C (second compound 0.3 µM, first compound 0.316 µM) was 4.09% and the viability, T/C (second compound 0.3 µM, first compound 1 µM) was 1.86%.
